Data from US20170050957A1, “4-AMINO-6-(HETEROCYCLIC)PICOLINATES AND 6-AMINO-2-(HETEROCYCLIC)PYRIMIDINE-4-CARBOXYLATES AND THEIR USE AS HERBICIDES” (Dow AgroSciences LLC, priority 2013, published 2017).
Where two headings read alike, the source gives them in different places.

What was measured:
[1] = test system: undesirable vegetation; assay: Herbicidal activity, comparison X is CF with X is CH; format: in vivo; conditions: 1.08 and 1.09 vs 1.21 and 1.22; 1.15 and 1.16 vs 1.23 and 1.24; A is A15
[2] = test system: Key Broadleaf Weed and Crop Species; assay: Post-emergent Test II herbicidal activity (Table 15); format: in vivo; conditions: post-emergence, 336 h, 14 d; for pest or weed control at 35 g/ha: 35 g ai/ha; for pest or weed control at 70 g/ha: 70 g ai/ha; for pest or weed control at 140 g/ha: 140 g ai/ha
Summary of the method: (§1)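 Plants grown in greenhouse (~15 h photoperiod, 23-29 °C day, 22-28 °C night) to first or second true leaf stage, then sprayed post-emergence at 187 L/ha with a high rate and 1/2×, 1/4×, 1/8× and 1/16× dilutions. Injury scored visually after 14 d, 0-100% versus untreated plants.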

[3] = test system: Key Grass and Sedge Weeds as well as Grass Crops; assay: Post-emergent Test II herbicidal activity (Table 16); format: in vivo; conditions: post-emergence, 336 h, 14 d; for pest or weed control at 35 g/ha: 35 g ai/ha; for pest or weed control at 70 g/ha: 70 g ai/ha; for pest or weed control at 140 g/ha: 140 g ai/ha
Summary of the method: as §1

[4] = Abutilon theophrasti, velvetleaf (Abutilon theophrasti), read-out: Visual Growth Reduction (%) 14 Days After Application, ABUTH
[5] = Amaranthus retroflexus, redroot pigweed (Amaranthus retroflexus), read-out: Visual Growth Reduction (%) 14 Days After Application, AMARE
[6] = Brassica napus, oilseed rape, canola (Brassica napus), read-out: Visual Growth Reduction (%) 14 Days After Application, BRSNN
[7] = Chenopodium album, lambsquarters (Chenopodium album), read-out: Visual Growth Reduction (%) 14 Days After Application, CHEAL
[8] = Euphorbia heterophylla, wild poinsettia (Euphorbia heterophylla), read-out: Visual Growth Reduction (%) 14 Days After Application, EPHHL
[9] = Helianthus annuus, sunflower (Helianthus annuus), read-out: Visual Growth Reduction (%) 14 Days After Application, HELAN
[10] = Cyperus esculentus, yellow nutsedge (Cyperus esculentus), read-out: Visual Growth Reduction (%) 14 Days After Application, CYPES
[11] = Echinochloa crus-galli, barnyardgrass (Echinochloa crus-galli), read-out: Visual Growth Reduction (%) 14 Days After Application, ECHCG
[12] = Oryza sativa, rice (Oryza sativa), read-out: Visual Growth Reduction (%) 14 Days After Application, ORYSA
[13] = Setaria faberi, giant foxtail (Setaria faberi), read-out: Visual Growth Reduction (%) 14 Days After Application, SETFA
[14] = Triticum aestivum, wheat, spring (Triticum aestivum), read-out: Visual Growth Reduction (%) 14 Days After Application, TRZAS
[15] = Zea mays, maize, corn (Zea mays), read-out: Visual Growth Reduction (%) 14 Days After Application, ZEAMX

| Structure (SMILES) | pest or weed control at 35 g/ha [2, 4] [%] | pest or weed control at 70 g/ha [2, 4] [%] | pest or weed control at 140 g/ha [2, 4] [%] | pest or weed control at 35 g/ha [2, 5] [%] | pest or weed control at 70 g/ha [2, 5] [%] | pest or weed control at 140 g/ha [2, 5] [%] | pest or weed control at 35 g/ha [2, 6] [%] | pest or weed control at 70 g/ha [2, 6] [%] | pest or weed control at 140 g/ha [2, 6] [%] | pest or weed control at 35 g/ha [2, 7] [%] | pest or weed control at 70 g/ha [2, 7] [%] | pest or weed control at 140 g/ha [2, 7] [%] | pest or weed control at 35 g/ha [2, 8] [%] | pest or weed control at 70 g/ha [2, 8] [%] | pest or weed control at 140 g/ha [2, 8] [%] | pest or weed control at 35 g/ha [2, 9] [%] | pest or weed control at 70 g/ha [2, 9] [%] | pest or weed control at 140 g/ha [2, 9] [%] | pest or weed control at 35 g/ha [3, 10] [%] | pest or weed control at 70 g/ha [3, 10] [%] | other results |
| --- | --- | --- | --- | --- | --- | --- | --- | --- | --- | --- | --- | --- | --- | --- | --- | --- | --- | --- | --- | --- | --- |
| Nc1c(F)c(-c2ccc3cc[nH]c3c2F)nc(C(=O)O)c1Cl [Compound 1.16, 4-Amino-3-chloro-5-fluoro-6-(7-fluoro-1H-indol-6-yl)picolinic acid] | 85 to 94 | 95 to 100 | 95 to 100 | 95 to 100 | 95 to 100 | 95 to 100 | 95 to 100 | 95 to 100 | 95 to 100 | 95 to 100 | 95 to 100 | 95 to 100 | 95 to 100 | 95 to 100 | 95 to 100 | 95 to 100 | 95 to 100 | 85 to 94 | 0 to 29 | 60 to 74 | activity when X is CF compared with X is CH [1]: significant increase in activity; pest or weed control at 140 g/ha [3, 10]: 85 to 94%; pest or weed control at 35 g/ha [3, 11]: 75 to 84%; pest or weed control at 70 g/ha [3, 11]: 85 to 94%; pest or weed control at 140 g/ha [3, 11]: 95 to 100%; pest or weed control at 35 g/ha [3, 12]: 30 to 44%; pest or weed control at 70 g/ha [3, 12]: 60 to 74%; pest or weed control at 140 g/ha [3, 12]: 60 to 74%; pest or weed control at 35 g/ha [3, 13]: 60 to 74%; pest or weed control at 70 g/ha [3, 13]: 75 to 84%; pest or weed control at 140 g/ha [3, 13]: 85 to 94%; pest or weed control at 35 g/ha [3, 14]: 30 to 44%; pest or weed control at 70 g/ha [3, 14]: 60 to 74%; pest or weed control at 140 g/ha [3, 14]: 60 to 74%; pest or weed control at 35 g/ha [3, 15]: 0 to 29%; pest or weed control at 70 g/ha [3, 15]: 30 to 44%; pest or weed control at 140 g/ha [3, 15]: 60 to 74% |
| COC(=O)c1nc(-c2cc3occc3cc2F)c(F)c(N)c1Cl [Compound 2.10] | 60 to 74 | 60 to 74 | 85 to 94 | 85 to 94 | 95 to 100 | 95 to 100 | 30 to 44 | 60 to 74 | 75 to 84 | 85 to 94 | 95 to 100 | 85 to 94 | 95 to 100 | 95 to 100 | 95 to 100 | 75 to 84 | 85 to 94 | 95 to 100 | 0 to 29 | 0 to 29 | melting point: 109 °C; pest or weed control at 140 g/ha [3, 10]: 30 to 44%; pest or weed control at 35 g/ha [3, 11]: 60 to 74%; pest or weed control at 70 g/ha [3, 11]: 60 to 74%; pest or weed control at 140 g/ha [3, 11]: 85 to 94%; pest or weed control at 35 g/ha [3, 12]: 0 to 29%; pest or weed control at 70 g/ha [3, 12]: 30 to 44%; pest or weed control at 140 g/ha [3, 12]: 30 to 44%; pest or weed control at 35 g/ha [3, 13]: 60 to 74%; pest or weed control at 70 g/ha [3, 13]: 60 to 74%; pest or weed control at 140 g/ha [3, 13]: 75 to 84%; pest or weed control at 35 g/ha [3, 14]: 0 to 29%; pest or weed control at 70 g/ha [3, 14]: 30 to 44%; pest or weed control at 140 g/ha [3, 14]: 60 to 74%; pest or weed control at 35 g/ha [3, 15]: 0 to 29%; pest or weed control at 70 g/ha [3, 15]: 30 to 44%; pest or weed control at 140 g/ha [3, 15]: 45 to 59% |
